Values quoted from earlier work as cited in patent US20100267661A1, “BETA GLUCANS AND METHODS OF USE THEREOF” (ImmuDyne, Inc., priority 2009, published 2010).

Settings: rats

## (1,3)-β-D-glucan [particulate yeast (1,3)-β-D-glucan]
  Adverse or toxic effects: no adverse or toxic effects
